Laboratory results taken from patent US9072737B2, “tPA mutant in the treatment of acute brain injury and neurodegenerative disorders” (HADASIT MEDICAL RESEARCH SERVICES & DEVELOPMENT LTD., priority 2008, dated 2015).

Tested on: Blood Brain Barrier (BBB)
Experiment: Blood brain barrier permeability, Evans blue uptake into brain
Type: in vivo, mice
Settings: peptide 1 mg/kg i.p. together with tPA 1 mg/kg; FIG. 4A
Method: The uptake of Evans blue dye into a brain tissue served as a marker to for quantifying disruption of the blood-brain barrier and increase in permeability of the BBB. […] Data was expressed as absorbance at 620 nm per gram of tissue. The mean±SEM of data from 8-9 animals/group are shown.
FIG. 4A. Mice were injected i.p. with 25 μl of saline or saline containing either WT-tPA or mtPA (1 mg/kg each) alone or together with PAI-1 derived 18 amino acids (aa) (as denoted by SEQ ID NO. 8) or 6 aa (as denoted by SEQ ID NO. 3) peptides (1 mg/kg each). Ten minutes later, the mice were given an i.v. injection of 2% Evans blue (EB) in saline. One hour after injection of dye, organs were cleared of blood by transcardiac perfusion. […] Extruded dye was quantified by absorbance at 620 nm. The figure presents a histogram illustration of the absorbance of EB at […] per gram of tissue. […]
To determine the effect of injection of tPA-S^481A on BBB function, anesthetized mice were injected i.p. with 25 μl of saline or saline containing tPA or tPA mutant (tPA-Ser^481Ala) (1 mg/kg each), followed by the intravenous injection of 2% Evans blue in saline. Evans blue was quantified by absorbance at 620 nm.
Plasminogen activator inhibitor-1 (PAI-1) is recognized as the inhibitor of tPA. […] Extruded dye was quantified by absorbance at 620 nm. Data are expressed in FIG. 4A as absorbance per gram of tissue.

Substance: EEIIMD (listed as Homo sapiens) [reference compound]
- inhibition of recombinant tPA-induced BBB permeability: failed to decrease
